Measured values reported in PMC10794144, “A novel antibiotic class targeting the lipopolysaccharide transporter” (Nature, 2024).
Read-outs that look alike come from different tables or passages of the source.

Tested on: A. baumannii
Test: microbe, parasite or virus in culture
Conditions: for MIC90 / MIC: Acinetobacter baumannii
Summary of the method: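 Values come from CLSI-guided (M07, M100) broth microdilution in CAMHB. Endpoint: lowest concentration halting growth, judged by naked eye or by OD600 plateau.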

C[C@@H](O)[C@H]1C(=O)N2C(C(=O)O)=C(S[C@@H]3CN[C@H](C(=O)N(C)C)C3)[C@H](C)[C@H]12 [meropenem, reference compound]
0.25 µg/mL: MIC (ATCC17978, ATCC 17978, CAMHB, MCPs read at 80% inhibition) | MIC (ATCC17978, read-out: MIC 100%, ATCC 17978, Study LGC301026, 100%)
> 16 µg/mL: MIC90 (129 clinical isolates, CAMHB) | MIC (ACC00445, CAMHB, MCPs read at 80% inhibition) | MIC (ACC00535, CAMHB, MCPs read at 80% inhibition) | MIC (ACC01077, CAMHB, MCPs read at 80% inhibition) | MIC (ROB08702, CAMHB, MCPs read at 80% inhibition) | MIC (ROB08703, CAMHB, MCPs read at 80% inhibition) | MIC (ROB08704, CAMHB, MCPs read at 80% inhibition) | MIC (ROB08705, CAMHB, MCPs read at 80% inhibition) | MIC (ROB08706, CAMHB, MCPs read at 80% inhibition) | MIC (ROB08707, CAMHB, MCPs read at 80% inhibition) | MIC (ROB08709, CAMHB, MCPs read at 80% inhibition) | MIC (ROB08710, CAMHB, MCPs read at 80% inhibition)
16 µg/mL: MIC (ACC01073, CAMHB, MCPs read at 80% inhibition) | MIC (ROB08708, CAMHB, MCPs read at 80% inhibition) | MIC (read-out: MIC 100%, ROB08702, Study LGC281440, 100%)
1 µg/mL: MIC (ATCC19606, ATCC 19606, CAMHB, MCPs read at 80% growth inhibition) | MIC (ATCC19606, ATCC 19606, CAMHB, MCPs read at 80% inhibition) | MIC (ATCC19606, read-out: MIC 100%, ATCC 19606, Study LGC277937, 100%) | MIC (ATCC19606, read-out: MIC 100%, ATCC 19606, Study LGC279800, 100%) | MIC (ATCC19606, read-out: MIC 100%, ATCC 19606, Study LGC281440, 100%) | MIC (ATCC19606, read-out: MIC 100%, ATCC 19606, Study LGC282160, 100%) | MIC (ATCC19606, read-out: MIC 100%, ATCC 19606, Study LGC283932, 100%) | MIC (ATCC19606, read-out: MIC 100%, ATCC 19606, Study LGC284200, 100%) | MIC (ATCC19606, read-out: MIC 100%, ATCC 19606, Study LGC308175, 100%) | MIC (ATCC19606, read-out: MIC 100%, ATCC 19606, Study ROC003, 100%) | MIC (ATCC19606, read-out: MIC 100%, ATCC 19606, Study ROC004, 100%) | MIC (ATCC19606, read-out: MIC 100%, ATCC 19606, Study ROC005, 100%) | MIC (ATCC19606, read-out: MIC 100%, ATCC 19606, Study ROC006, 100%) | MIC (ATCC19606, read-out: MIC 100%, ATCC 19606, Study ROC008, 100%) | MIC (ROB08701, CAMHB, MCPs read at 80% inhibition) | MIC (read-out: MIC 100%, ROB08701, Study LGC277937, 100%) | MIC (read-out: MIC 100%, ROB08701, Study LGC279800, 100%) | MIC (read-out: MIC 100%, ROB08701, Study LGC281440, 100%) | MIC (read-out: MIC 100%, ROB08701, Study LGC282160, 100%) | MIC (read-out: MIC 100%, ROB08701, Study LGC282623, 100%) | MIC (read-out: MIC 100%, ROB08701, Study LGC283932, 100%) | MIC (read-out: MIC 100%, ROB08701, Study LGC284879, 100%) | MIC (read-out: MIC 100%, ROB08701, Study LGC285582, 100%) | MIC (read-out: MIC 100%, ROB08701, Study LGC286210, 100%) | MIC (read-out: MIC 100%, ROB08701, Study LGC294355, 100%) | MIC (read-out: MIC 100%, ROB08701, Study LGC295147, 100%) | MIC (read-out: MIC 100%, ROB08701, Study LGC299544, 100%) | MIC (read-out: MIC 100%, ROB08701, Study LGC301026, 100%) | MIC (read-out: MIC 100%, ROB08701, Study LGC308175, 100%) | MIC (read-out: MIC 100%, ROB08701, Study ROC003, 100%) | MIC (read-out: MIC 100%, ROB08701, Study ROC004, 100%) | MIC (read-out: MIC 100%, ROB08701, Study ROC005, 100%) | MIC (read-out: MIC 100%, ROB08701, Study ROC006, 100%) | MIC (read-out: MIC 100%, ROB08701, Study ROC007, 100%) | MIC (read-out: MIC 100%, ROB08701, Study ROC008, 100%) | MIC (read-out: MIC 100%, ROB08701, Study ROC009, 100%) | MIC (read-out: MIC 100%, ROB08701, Study ROC010, 100%) | MIC (read-out: MIC 100%, ROB08701, Study ROC013, 100%)
64 µg/mL: MIC90 | MIC (read-out: MIC 100%, ROB08702, Study LGC282160, 100%)
0.5 µg/mL: MIC (ATCC17978, ATCC 17978, CAMHB, one replicate, MCPs read at 80% growth inhibition) | MIC (ATCC17978, read-out: MIC 100%, ATCC 17978, Study LGC308175, 100%) | MIC (ATCC19606, read-out: MIC 100%, ATCC 19606, Study LGC282623, 100%) | MIC (ATCC19606, read-out: MIC 100%, ATCC 19606, Study ROC012, 100%) | MIC (read-out: MIC 100%, ROB08701, Study ROC012, 100%)
4 µg/mL: MIC (ATCC19606, read-out: MIC 100%, ATCC 19606, Study LGC284879, 100%) | MIC (ATCC19606, read-out: MIC 100%, ATCC 19606, Study LGC285582, 100%) | MIC (ATCC19606, read-out: MIC 100%, ATCC 19606, Study LGC299544, 100%) | MIC (ATCC19606, read-out: MIC 100%, ATCC 19606, Study LGC301026, 100%) | MIC (ATCC19606, read-out: MIC 100%, ATCC 19606, Study ROC013, 100%)
0.12 µg/mL: MIC (ATCCBAA747, ATCC BAA-747, CAMHB, MCPs read at 80% inhibition)
8 µg/mL: MIC (ACC01085 / AR0307, CAMHB, MCPs read at 80% inhibition)
32 µg/mL: MIC (read-out: MIC 100%, ROB08701, Study LGC284200, 100%) | MIC (read-out: MIC 100%, ROB08702, Study LGC277937, 100%) | MIC (read-out: MIC 100%, ROB08702, Study LGC279800, 100%) | MIC (read-out: MIC 100%, ROB08702, Study LGC282623, 100%) | MIC (read-out: MIC 100%, ROB08702, Study LGC283932, 100%) | MIC (read-out: MIC 100%, ROB08702, Study LGC284200, 100%)
2 µg/mL: MIC (ATCC19606, read-out: MIC 100%, ATCC 19606, Study LGC286210, 100%) | MIC (ATCC19606, read-out: MIC 100%, ATCC 19606, Study LGC293598, 100%) | MIC (ATCC19606, read-out: MIC 100%, ATCC 19606, Study LGC294355, 100%) | MIC (ATCC19606, read-out: MIC 100%, ATCC 19606, Study LGC295147, 100%) | MIC (ATCC19606, read-out: MIC 100%, ATCC 19606, Study LGC296813, 100%) | MIC (ATCC19606, read-out: MIC 100%, ATCC 19606, Study ROC007, 100%) | MIC (ATCC19606, read-out: MIC 100%, ATCC 19606, Study ROC009, 100%) | MIC (ATCC19606, read-out: MIC 100%, ATCC 19606, Study ROC010, 100%) | MIC (read-out: MIC 100%, ROB08701, Study LGC293598, 100%) | MIC (read-out: MIC 100%, ROB08701, Study LGC296813, 100%)
1 to 64 µg/mL: MIC range (10 MDR isolates, CAMHB, MCPs read at 80% growth inhibition)
